Experimental data from US20160137639A1, “TRIAZOLE-ISOXAZOLE COMPOUND AND MEDICAL USE THEREOF” (JAPAN TOBACCO INC., priority 2012, published 2016).
Where two headings read alike, the source gives them in different places.

Experiments:
[1] = target: T1, human RORγ (Homo sapiens, UniProt P51449); experiment: Luciferase reporter gene assay of inhibitory effect against RORγ transcriptional activity (GAL4-hRORγ plasmid in CHO cells); type: cell-based
T1 construct: human, NM_005060.3 and from Ser253 to Lys518; expressed in transfected cells; host or cells: CHO cells (transient co-transfection with pG5-Luc reporter)
T1 sequence (P51449 253-518): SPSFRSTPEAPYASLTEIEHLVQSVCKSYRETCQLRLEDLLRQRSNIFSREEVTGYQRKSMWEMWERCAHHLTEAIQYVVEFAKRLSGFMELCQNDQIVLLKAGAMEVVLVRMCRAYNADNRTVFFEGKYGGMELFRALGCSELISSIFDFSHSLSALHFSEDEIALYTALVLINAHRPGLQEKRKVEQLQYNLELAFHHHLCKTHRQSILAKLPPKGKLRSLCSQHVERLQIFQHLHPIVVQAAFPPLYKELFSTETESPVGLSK
Experimental: (§1) In vitro assay of inhibitory effect against RORγ transcriptional activity
(§2) Inhibitory effect of test article on transcriptional activity of RORγ was measured by means of the following luciferase reporter gene assay.
(§3) A cDNA encoding human and mouse RORγ ligand binding domain (LBD) were obtained based on the reported sequences (Genebank accession number and sequence: human, NM_005060.3 and from Ser253 to Lys518; mouse, NM_011281.2 and from Ile251 to Lys516).
(§4) The cDNA of human RORγ or mouse RORγ was inserted into pFA-CMV vector (Strategene), which expresses GAL4-DNA binding domain fusion protein.
(§5) The resulting plasmids are hereinafter referred to as GAL4-hRORγ plasmid and GAL4-mRORγ plasmid, respectively.
(§6) Human or mouse GAL4-RORγ plasmid was transiently co-transfected into Chinese hamster ovary cells (CHO cells) with […] plasmid, a reporter plasmid expressing firefly luciferase depending on GAL4.
(§7) TransIT CHO transfection reagent (Mirus) was used to co-transfect human or mouse GAL4-RORγ plasmid into CHO cells with pG5-Luc plasmid.
(§8) One day before the assay, CHO cells were suspended in HAM F-12 Nutrient medium containing 10 v/v % fetal bovine serum and seeded at 6×10^6 cells per 175 cm^2 cell culture flask.
(§9) Fifty four micro litters of Transit-CHO reagent was added into a 15 ml tube containing 1.16 ml of HAM F-12 Nutrient medium without fetal bovine serum and incubated at room temperature for 10 min.
A total 36 uL plasmid solution containing the GAL4-hRORγ plasmid (400 ng), pG5-Luc plasmid (9000 ng) and pcDNA3 plasmid (8600 ng) were added into the tube and mixed gently.
(§10) The mixture was incubated at room temperature for 10 min.
(§11) Nine micro litters of CHO Mojo Reagent was then added into each tube and mixed gently. The mixture was incubated at room temperature for 10 min.
(§12) The resultant transfection reagent was applied to the cell culture.
(§13) After incubation at 37° C., 5% CO2 for 4 hr, the transfected CHO cells were harvested by a trypsin treatment.
(§14) The collected cells were resuspended in HAM F-12 Nutrient medium supplemented with 10 v/v % fetal bovine serum and plated into a 384-well-white plate at 8,000 cells/50 uL/well.
(§15) The plate was incubated at room temperature for 1 hour and then further incubated at 37° C., 5% CO2 for 3 hours.
(§16) The test articles were dissolved in dimethylsulfoxide (DMSO) to obtain a concentration of 10 mmol/L. The resulting solution was diluted with the medium just before use and added to the cells in the plate to prepare 8 different concentrations of the test article.
(§17) The final concentration of DMSO was 0.1 v/v % After the addition of the test articles, the cells were incubated at 37° C., 5% CO2 for 2 days.
(§18) RORγ transcriptional activity was detected as the intracellular luciferase activity using SteadyLite HTS Reporter Gene Assay System (Perkin Elmer).
(§19) StedyLite Reagent was diluted five-fold into a solution containing 10 mM Tricine, 0.2% w/v BSA, 0.02% v/v Tween-20 to obtain the luciferase substrate solution.
(§20) After the measurement of the cell viability using Resazurin, the culture media in the 384 well-plate were removed. Then the Luc substrate solution was added into each well.
(§21) After the incubation at room temperature for 10 minutes, luminescence of each well was measured by a microplate reader.
(§22) The luciferase activity derived from the luminescence count in the vehicle-control well treated with 0.1% DMSO alone was defined as 100%, and the luciferase activity in the test article was calculated as a percentage (%-of-control) based on the value of the vehicle-control.
(§23) EC50 value of test article was calculated by curve fitting with GraphPad Prism.
(§24) The luminescence counts at the concentration of the test article where the cytotoxicity was observed were excluded from the data analysis.

[2] = target: T2, mouse RORγ (Mus musculus, UniProt P51450); experiment: Luciferase reporter gene assay of inhibitory effect against RORγ transcriptional activity (GAL4-mRORγ plasmid in CHO cells); type: cell-based
T2 construct: mouse, NM_011281.2 and from Ile251 to Lys516; expressed in transfected cells; host or cells: CHO cells (transient co-transfection with pG5-Luc reporter)
T2 sequence (P51450 251-516): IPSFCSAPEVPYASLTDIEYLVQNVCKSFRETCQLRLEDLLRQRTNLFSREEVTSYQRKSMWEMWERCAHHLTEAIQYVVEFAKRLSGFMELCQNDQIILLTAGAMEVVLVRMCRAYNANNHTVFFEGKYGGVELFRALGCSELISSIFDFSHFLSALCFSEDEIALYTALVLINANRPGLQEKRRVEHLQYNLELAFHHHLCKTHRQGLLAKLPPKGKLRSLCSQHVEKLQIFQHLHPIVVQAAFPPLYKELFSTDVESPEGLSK
Experimental: as §1, §2, §3, §4, §5, §6, §7, §8, §9, §10, §11, §12, §13, §14, §15, §16, §17, §18, §19, §20, §21, §22, §23, §24

| SMILES | EC50 ([1]; read-out: LUC EC50 hRORg) | EC50 ([2]; read-out: LUC EC50 mRORg) | EC50 ([1]; read-out: LUC EC50 (μM) hRORg) | EC50 ([2]; read-out: LUC EC50 (μM) mRORg) |
| --- | --- | --- | --- | --- |
| CC(=O)N1C[C@H](C(=O)Nc2ccc(Cl)cc2C)[C@@H](c2nnc(C3CC4(CCC(F)(F)CC4)C3)n2C2CC2)C1 [Example F-610] | < 3 µM | < 3 µM | – | – |
| CC(C)(C)C[C@H]1C[C@@H](c2noc([C@@H](CCC(=O)O)CC(=O)Nc3ccc(Cl)cc3Cl)c2C2CC2)C1 [Example F-718] | < 3 µM | < 3 µM | – | – |
| Cc1ccc(NC(=O)C[C@H](CCC(=O)O)c2noc(-c3noc(CCC(C)C)c3Cl)c2C2CC2)c(Cl)c1 [Example E-10] | – | – | < 3 µM | < 3 µM |
| CC(C)CCc1nnc(CCC(=O)Nc2ccccc2Cl)n1C1CC1 [Example F-93] | – | – | > 3 µM | > 3 µM |
| CCOC(=O)C(CC(=O)Nc1cccc(Cl)c1C)c1nnc(CCC(C)C)n1C1CC1 (racemic) [Example F-159] | – | – | > 3 µM | > 3 µM |
| Cc1cc(F)ccc1NC(=O)C[C@H](OC(C)C)c1nnc(-c2cc(CC(C)C)on2)n1C1CC1 [Example F-576] | < 3 µM | < 3 µM | – | – |
| CC(C)(C)CCc1cc(-c2onc([C@@H](CCC(=O)O)CC(=O)Nc3ccc(F)cc3Cl)c2C2CC2)no1 [Example E-34] | – | – | < 3 µM | < 3 µM |
| Cc1ccc(NC(=O)C[C@H](CCO)c2nnc(CCCC(C)C)n2C2CC2)c(C)c1 [Example F-314] | – | – | < 3 µM | < 3 µM |
| Cc1ccc(NC(=O)C[C@H](CCC(=O)O)c2noc(-c3cc(CCC(C)C)on3)c2C2CC2)c(Cl)c1 [Example E-05] | – | – | < 3 µM | < 3 µM |
| CCn1c(CCC(=O)Nc2cccc(Cl)c2Cl)nnc1C1Cc2ccccc2C1 [Example F-30] | – | – | > 3 µM | < 3 µM |
| Cc1ccc(NC(=O)CC(CC#N)c2nnc(CCCC(C)(C)C)n2C2CC2)c(C)c1 (racemic) [Example F-440] | – | – | < 3 µM | < 3 µM |
| Cc1ccc(NC(=O)C[C@H](CCC(=O)O)c2noc(-c3cc(C4(CC(C)C)CC4)on3)c2C2CC2)c(Cl)c1 [Example E-23] | – | – | < 3 µM | < 3 µM |
| CC(=O)N1C[C@H](C(=O)Nc2ccc(F)cc2C)[C@@H](c2nnc(CCCC(C)(C)C)n2C2CC2)C1 (racemic) [Example F-333] | – | – | < 3 µM | < 3 µM |
| Cc1c(Cl)cccc1NC(=O)CCc1nnc(C(C)CC(C)C)n1C1CC1 (racemic) [Example F-98] | – | – | > 3 µM | < 3 µM |
| Cc1ccc(NC(=O)CCc2cc([C@H]3C[C@@H](CC(C)(C)C)C3)on2)c(Cl)c1 [Example F-733] | < 3 µM | < 3 µM | – | – |
| Cc1ccc(NC(=O)CC(CCO)c2nnc(C(F)(F)CCC(C)(C)C)n2C2CC2)c(C)c1 (racemic) [Example F-366] | – | – | < 3 µM | < 3 µM |
| CC(=O)N1C[C@H](C(=O)Nc2ccc(C)cc2C)[C@@H](c2nnc(C3CN(C(=O)N(C)C(C)C)C3)n2C2CC2)C1 (racemic) [Example F-419] | – | – | > 3 µM | > 3 µM |
| C=CCC(CC(=O)NCc1ccc(C)cc1OC)c1nnc(CCC2CCCCC2)n1C1CC1 (racemic) [Example F-246] | – | – | < 3 µM | < 3 µM |
| Cc1ccc(NC(=O)C[C@H](CCC(=O)O)c2noc(-c3cc(CC(C)C)[nH]n3)c2C2CC2)c(F)c1 [Example E-07] | – | – | > 3 µM | > 3 µM |
| Cc1ccc(NC(=O)C[C@H](OC(C)C)c2nnc(-c3cc(CC(C)C)on3)n2C2CC2)c(C)c1 [Example F-575] | < 3 µM | < 3 µM | – | – |
| Cc1c(F)cccc1CNC(=O)CCc1nnc(CCC(C)C)n1C1CC1 [Example F-126] | – | – | > 3 µM | > 3 µM |
| CC(C)(C[C@H]1C[C@@H](c2onc(C(CCC(=O)O)CC(=O)Nc3ccc(C(=O)O)cc3Cl)c2C2CC2)C1)C(=O)O (stereo partly drawn) [Example F-746] | > 3 µM | > 3 µM | – | – |
| Cc1ccc(NC(=O)C[C@H](CC(=O)NC(C)(C)C)c2noc([C@H]3C[C@@H](CC(C)C)C3)c2C2CC2)c(C)c1 [Example F-639] | < 3 µM | < 3 µM | – | – |
| CC(C)CCc1nnc(CCC(=O)N[C@@H](C)c2ccccc2)n1C1CC1 [Example F-62] | – | – | > 3 µM | > 3 µM |
